From article PMC13198257, “An aerosolized dual-action autotaxin inhibitor-PPARγ agonist for the treatment of pulmonary fibrosis” (Cell Reports Medicine, 2026)

Test system: lung gene expression
Assay: RNA sequencing of lung tissue (BLM/EL244 vs BLM)
Type: in vivo, mouse
Description: RNA quality was assessed using an Agilent TapeStation 4150 with the High Sensitivity […] ScreenTape (Agilent), according to the manufacturer’s protocols. For library preparation, the QuantSeq 3’mRNA-Seq Library Prep Kit (Lexogen) was used according to manufacturer’s instructions. Briefly, 500 ng of RNA from each sample was used for first-strand synthesis, followed by RNA template removal, and second-strand synthesis initiated by random primers. In-line barcodes were introduced at this step, and this was followed by magnetic bead-based purification. The resulting libraries were amplified for 15 cycles and re-purified, with quantity and quality assessed on a Qubit 4 Fluorometer with the Invitrogen Qubit dsDNA HS Assay and an Agilent Tapestation 4150 with the High Sensitivity D1000 assay kit, respectively. The quantified libraries were pooled equimolarly; 50ng of total library mix was used for Adapter Conversion PCR Amplification using the Universal Library Conversion Kit (App-A), Version: V1.0 (MGI Tech Co., Ltd.), according to the manufacturer’s instructions.
The quantity and quality of the purified adapter conversion PCR (AC-PCR) product were evaluated on a Qubit 4 Fluorometer with the Invitrogen Qubit dsDNA HS Assay and on an Agilent Tapestation 4150 with the High Sensitivity D1000 assay kit, respectively. This was followed by DNA denaturation, Single-Strand Circularisation, Enzymatic Digestion, Enzymatic Digestion Product Cleanup and Quality Control steps on 1 pmol of AC-PCR product, according to the Universal Library Conversion Kit (App-A) User Manual (Version: A3).
Finally, 60 fmol of ssCirDNA were used for DNB preparation and sequencing on a DNBSEQ-G400 platform at the BSRC Alexander Fleming Genomics Facility, using a G400 App-A FCS SE100 High-throughput Sequencing Set (MGI Tech Co., Ltd.), according to the manufacturer’s instructions.
Alignment of the FASTQ files was performed against the mouse genome build mm10 using a custom Bash script.[143] Read counting on the 3′ UTRs and differential expression analysis were conducted using the metaseqR2 bioconductor package.[144] Genes corresponding to the following biotypes were excluded: polymorphic_pseudogene, processed_transcript, pseudogene, IG_V_pseudogene, misc_RNA, IG_C_gene, IG_J_gene, IG_D_gene, IG_LV_gene, TR_V_gene, TR_V_pseudogene, TEC, and processed_pseudogene. Gene counts were normalized with DESEQ[145] through metaseqR2. Genes with more than 10 counts in at least 50% of the samples were kept for further processing. For differential expression analysis, the PANDORA algorithm[146] was used to estimate a meta p-value integrating the results from the DESEQ, DESEQ2,[147] edgeR,[148] limma,[149] NBPSeq,[150] and NOISeq[151] algorithms. All additional parameters were set to default values.
Pathway enrichment analysis was performed for the Gene Ontology Biological process (BP) and Molecular Function (MF) terms through GeneCodis 4.[152] The volcano plots, scatterplots, Venn diagrams, and dot plots were generated using the ggplot2 Bioconductor package.

O=C1NC(=O)C(Cc2ccc(OCCC3CCN(C(=O)OCc4cc(Cl)cc(Cl)c4)CC3)cc2)S1 (stereo not shown) [EL244, 3,5-dichlorobenzyl 4-(2-(4-((2,4-dioxothiazolidin-5-yl)methyl)phenoxy)ethyl)piperidine-1-carboxylate]
Ear1 log2 nFC BLM/EL244 vs BLM (DEG Ear1, nFC: normalised fold change): 1.11
Ednrb log2 nFC BLM/EL244 vs BLM (DEG Ednrb, nFC: normalised fold change): 0.97
Elmod1 log2 nFC BLM/EL244 vs BLM (DEG Elmod1, nFC: normalised fold change): 0.89
Eml5 log2 nFC BLM/EL244 vs BLM (DEG Eml5, nFC: normalised fold change): 1.41
Eng log2 nFC BLM/EL244 vs BLM (DEG Eng, nFC: normalised fold change): 0.81
Errfi1 log2 nFC BLM/EL244 vs BLM (DEG Errfi1, nFC: normalised fold change): 0.95
Esm1 log2 nFC BLM/EL244 vs BLM (DEG Esm1, nFC: normalised fold change): 1.28
Fabp3 log2 nFC BLM/EL244 vs BLM (DEG Fabp3, nFC: normalised fold change): 0.98
Fabp12 log2 nFC BLM/EL244 vs BLM (DEG Fabp12, nFC: normalised fold change): 1.43
Faim2 log2 nFC BLM/EL244 vs BLM (DEG Faim2, nFC: normalised fold change): 2.03
Fam71f2 log2 nFC BLM/EL244 vs BLM (DEG Fam71f2, nFC: normalised fold change): 1.96
log2 nFC BLM/EL244 vs BLM (DEG Fcgr1): -1.30
log2 nFC BLM/EL244 vs BLM (DEG Fcrls): -1.35
log2 nFC BLM/EL244 vs BLM (DEG Fgf13): -1.40
log2 nFC BLM/EL244 vs BLM (DEG Fkbp10): -1.25
Fmo1 log2 nFC BLM/EL244 vs BLM (DEG Fmo1, nFC: normalised fold change): 0.86
Fmo2 log2 nFC BLM/EL244 vs BLM (DEG Fmo2, nFC: normalised fold change): 1.00
Fosb log2 nFC BLM/EL244 vs BLM (DEG Fosb, nFC: normalised fold change): 2.38
log2 nFC BLM/EL244 vs BLM (DEG Foxm1): -1.56
Fxyd1 log2 nFC BLM/EL244 vs BLM (DEG Fxyd1, nFC: normalised fold change): 0.80
Fzd4 log2 nFC BLM/EL244 vs BLM (DEG Fzd4, nFC: normalised fold change): 0.69
Galnt15 log2 nFC BLM/EL244 vs BLM (DEG Galnt15, nFC: normalised fold change): 0.89
log2 nFC BLM/EL244 vs BLM (DEG Gas2l3): -1.32
Ggt1 log2 nFC BLM/EL244 vs BLM (DEG Ggt1, nFC: normalised fold change): 1.91
log2 nFC BLM/EL244 vs BLM (DEG Gins2): -1.57
Gm867 log2 nFC BLM/EL244 vs BLM (DEG Gm867, nFC: normalised fold change): 2.18
Gm4956 log2 nFC BLM/EL244 vs BLM (DEG Gm4956, nFC: normalised fold change): 1.08
Gm9780 log2 nFC BLM/EL244 vs BLM (DEG Gm9780, nFC: normalised fold change): 2.06
Gm14964 log2 nFC BLM/EL244 vs BLM (DEG Gm14964, nFC: normalised fold change): 1.87
Gm20186 log2 nFC BLM/EL244 vs BLM (DEG Gm20186, nFC: normalised fold change): 1.31
Gm26236 log2 nFC BLM/EL244 vs BLM (DEG Gm26236, nFC: normalised fold change): 1.03
Gm42722 log2 nFC BLM/EL244 vs BLM (DEG Gm42722, nFC: normalised fold change): 1.79
Gm47291 log2 nFC BLM/EL244 vs BLM (DEG Gm47291, nFC: normalised fold change): 0.98
Gm49353 log2 nFC BLM/EL244 vs BLM (DEG Gm49353, nFC: normalised fold change): 2.21
Gm49391 log2 nFC BLM/EL244 vs BLM (DEG Gm49391, nFC: normalised fold change): 0.96
Gnao1 log2 nFC BLM/EL244 vs BLM (DEG Gnao1, nFC: normalised fold change): 0.85
Gnmt log2 nFC BLM/EL244 vs BLM (DEG Gnmt, nFC: normalised fold change): 1.14
Gpm6a log2 nFC BLM/EL244 vs BLM (DEG Gpm6a, nFC: normalised fold change): 0.83
Gpr155 log2 nFC BLM/EL244 vs BLM (DEG Gpr155, nFC: normalised fold change): 0.76
Gprasp1 log2 nFC BLM/EL244 vs BLM (DEG Gprasp1, nFC: normalised fold change): 0.72
Gpt log2 nFC BLM/EL244 vs BLM (DEG Gpt, nFC: normalised fold change): 0.73
Gria1 log2 nFC BLM/EL244 vs BLM (DEG Gria1, nFC: normalised fold change): 1.61
Gsn log2 nFC BLM/EL244 vs BLM (DEG Gsn, nFC: normalised fold change): 1.06
Gsta3 log2 nFC BLM/EL244 vs BLM (DEG Gsta3, nFC: normalised fold change): 1.10
Gstm1 log2 nFC BLM/EL244 vs BLM (DEG Gstm1, nFC: normalised fold change): 0.75
log2 nFC BLM/EL244 vs BLM (DEG Gtse1): -1.49
log2 nFC BLM/EL244 vs BLM (DEG Gxylt2): -1.47
Gzma log2 nFC BLM/EL244 vs BLM (DEG Gzma, nFC: normalised fold change): 1.70
log2 nFC BLM/EL244 vs BLM (DEG H2ac11): -1.45
log2 nFC BLM/EL244 vs BLM (DEG H2ac12): -1.44
Hba-a1 log2 nFC BLM/EL244 vs BLM (DEG Hba-a1, nFC: normalised fold change): 1.21
Hba-a2 log2 nFC BLM/EL244 vs BLM (DEG Hba-a2, nFC: normalised fold change): 1.14
Hbb-bs log2 nFC BLM/EL244 vs BLM (DEG Hbb-bs, nFC: normalised fold change): 1.10
Hbb-bt log2 nFC BLM/EL244 vs BLM (DEG Hbb-bt, nFC: normalised fold change): 1.09
log2 nFC BLM/EL244 vs BLM (DEG Hells): -1.30
Hhatl log2 nFC BLM/EL244 vs BLM (DEG Hhatl, nFC: normalised fold change): 2.05
Hlf log2 nFC BLM/EL244 vs BLM (DEG Hlf, nFC: normalised fold change): 0.89
Igf1r log2 nFC BLM/EL244 vs BLM (DEG Igf1r, nFC: normalised fold change): 0.70
